{"source": "patent US20040077634A1", "about": "“Treatment of diseases characterized by excessive or insufficient cell death” (priority 2001, published 2004)", "key": {"[1]": {"tested_on": "DEVDase (caspase-3-like protease)", "test": "Inhibition of DEVDase in cytochrome c/dATP-activated Hela cytosolic extract (method 1)", "type": "biochemical", "protocol": "Hela cells are grown in large petri dishes until subconfluency. Cells are then harvested and washed in PBS. The cell pellet is resuspended in equal volumes of ice-cold isotonic lysisbuffer (SCA; 20 mM Hepes-KOH pH 7.5, 10 mM KCl, 1.5 mM MgCl2, 1 mM EDTA, 1 mM EGTA, 250 mM sucrose, 1 mM DTT, 10 μg/ml aprotinin, 1 μg/ml leupeptin, 1 μg/ml pepstatin A, 100 μg/ml peta-block), incubated on ice for 30 min and lysed by approx. 30 strokes of a dounce homogenizer. The lysate is then centrifuged at 750 g for 10 min, and the supernatant thereof at 10,000 g for 10 min and at 20,000 g for 30 min. The clarified supernatant is removed carefully and stored in aliquots at −80° C. Activation of endogene caspases is induced by addition of 1 mM dATP and 1 μM horse heart cytochrome c to cytosolic extract (protein concentration; 5-10 mg/ml) in the presence of DEVD-AFC and the compound (final concentration 100 μM). Activated DEVD'ases (AFC release) is measured by fluorometry in 96-well plates at 37° C. After end measurements 2× LSB-Mechaptoethanol are added to the samples for assessment of caspase processing by immunoblot analysis. Percent inhibition is calculated as follows: [formula]"}, "[2]": {"molecular_target": "T1, recombinant caspase-9 (Homo sapiens, UniProt P55211)", "T1 sequence (P55211 1-315 limits assumed)": "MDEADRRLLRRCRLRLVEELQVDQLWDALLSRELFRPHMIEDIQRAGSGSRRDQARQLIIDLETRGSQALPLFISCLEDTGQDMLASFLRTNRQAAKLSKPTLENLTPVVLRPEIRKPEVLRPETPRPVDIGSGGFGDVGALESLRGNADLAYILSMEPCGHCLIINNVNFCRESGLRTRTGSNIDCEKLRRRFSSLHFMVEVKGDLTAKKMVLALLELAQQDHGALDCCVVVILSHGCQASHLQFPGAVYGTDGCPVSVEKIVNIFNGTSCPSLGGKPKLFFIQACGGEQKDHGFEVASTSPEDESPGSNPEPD", "T1 sequence (P55211 331-416 limits assumed)": "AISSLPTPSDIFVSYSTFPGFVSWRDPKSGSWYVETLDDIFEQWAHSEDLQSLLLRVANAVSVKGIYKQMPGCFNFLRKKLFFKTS", "test": "Recombinant caspase-9 activity, cleavage of LEHD-AFC", "type": "biochemical", "conditions": "25 to 100 μM; LEHD-AFC substrate", "protocol": "The inhibition of the DEVDase activity in the in vitro caspase activation system could be due to a direct inhibition of caspase-9, -3, or -7 activities, or to the inhibition of the apoptosome formation. To test if compounds a, f, and g were specific caspase inhibitors, recombinant caspase-3 and caspase-9 were incubated with the three compounds and the enzymatic activities of caspases were monitored by analysing the cleavage of the caspase-3 substrate DEVD-AFC or the caspase-9 substrate LEHD-AFC, respectively."}, "[3]": {"tested_on": "MCF-neo cells", "test": "TNF-induced cell death of MCF-neo cells", "type": "cell-based", "description": "The ability of compound f to inhibit cell death was examined in MCF-neo and MCF-casp3 cells. […] To analyse the mechanism of the action of compound f in alive cells, MCF-casp3 cells were treated with TNF (5 ng/ml) in the presence of 50 μM compound f and the activity of caspase-3-like proteases was measured by a DEVDase enzyme assay."}}, "data": [{"smiles": "O=C(Nc1cccc(C(F)(F)F)c1)Nc1cc(Cl)ccc1C(=O)O", "note": "[Compound f, [N-(2-Carboxy-5-chlorophenyl)-N′-(3-trifluoromethylphenyl)]urea]", "values": [{"measurement": "inhibition of the DEVDase activity (dose dependence)", "setting": "[1]; cell extracts stimulated with Cc/dATP", "value": "dose-dependent inhibition"}, {"measurement": "% Inhibition", "setting": "[1]; compound final concentration 100 μM, 1 mM dATP and 1 μM cytochrome c, DEVD-AFC", "value": 94, "unit": "%"}, {"measurement": "inhibition of recombinant caspase-9 activity", "setting": "[2]", "value": "failed to inhibit"}, {"measurement": "cell death induced by TNF", "setting": "[3]; 1 ng/ml TNF, 50 μM", "value": "completely blocked"}, {"measurement": "protection against TNF-induced cell death", "setting": "[3]; 5 ng/ml TNF, 50 μM", "value": "protection was still significant"}, {"measurement": "inhibition of TNF-induced cell death", "setting": "[3]; 10 ng/ml TNF", "value": "no inhibition"}]}]}
